Results filed as inconclusive are left out. Calls of active or inactive are those of the source.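 How the source made its calls: active means compound lowering the normal-ribosome reporter at least twice as much as the humanized-ribosome reporter, growth loss under a set limit; inconclusive means no clear call, values can overlap the other calls; inactive means the rest.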
Assays:
[1] = test system: E. coli WT GFP strain growth, fluorescence, 24 h; experiment: growth of wild-type and h24-humanized E. coli strains – h24 mutant RFP vs wild-type GFP, cherry-pick, dose response (AID 977628)
[2] = test system: E. coli mixed WT/h24 culture total growth, OD600, 24 h; experiment: as above

| SMILES | AC50 [1] | AC50 [2] [µM] |
| --- | --- | --- |
| O=C(NCC(c1ccc(F)cc1)N1CCOCC1)c1ccc([N+](=O)[O-])o1 (stereo unspecified) | > 100 µM (inactive) | > 100 |
| Cc1cc(Cl)n2ncc(-c3ccccc3)c2n1 | > 100 µM (inactive) | > 100 |
| COc1ccc(C(=O)Nc2ccc3oc(Cc4ccc(Cl)cc4)nc3c2)cc1OC | > 100 µM (inactive) | > 100 |
| Fc1ccc(-n2cc(CNCCc3cccnc3)c(-c3ccccc3Cl)n2)cc1 | > 100 µM (inactive) | 49.2 |
| CCN(CC)S(=O)(=O)c1ccc(O)c(C(=O)OCC(=O)NC23CC4CC(CC(C4)C2)C3)c1 | > 100 µM (inactive) | > 100 |
| CCCNC(=O)c1noc2c1CCc1cc(OC)ccc1-2 | > 100 µM (inactive) | 34.8 |
| Cn1cnc(CCNC(=O)C[C@H]2CC[C@@H]3[C@H](COC[C@H](O)CN3C(=O)Nc3ccc(Cl)cc3)O2)c1 | > 100 µM (inactive) | > 100 |
| CC(C)Oc1ccc(C(CC(=O)O)NC(=O)C(Sc2ccccc2)c2ccccc2)cc1 (stereo unspecified) | > 100 µM (inactive) | > 100 |
| S=C1SCN(Cc2cccnc2)CN1Cc1ccccc1 | > 100 µM (inactive) | > 100 |
| Cc1ccc(CNC(=O)c2ccc(Br)o2)cc1 | > 100 µM (inactive) | > 100 |
| Cc1cc(NC(=O)CS(=O)(=O)c2cn(Cc3cccc(Br)c3)c3ccccc23)no1 | > 100 µM (inactive) | 40 |
| Brc1cc2c(cc1Br)OCCOCCOCCO2 | > 100 µM (inactive) | > 100 |
| COC(=O)C(Cc1csc2ccc(Cl)cc12)NC(=O)c1ccc(Cl)cc1 (stereo unspecified) | > 100 µM (inactive) | 31 |
| Clc1cccc(OCc2nc(-c3ccncc3)n[nH]2)c1 | > 100 µM (inactive) | > 100 |
| Cc1nc2ccc(Br)cc2c(=O)n1Cc1cccs1 | > 100 µM (inactive) | 49.7 |
| O=C(Nc1cccc(Cl)c1)N1C[C@@H]2[C@H](c3ccccc31)[C@H](CO)N2Cc1ccncc1 | > 100 µM (inactive) | > 100 |
| COc1ccc(OC)c(NC(=O)COC(=O)C2CCN(C(=O)c3ccc(Cl)cc3)CC2)c1 | > 100 µM (inactive) | > 100 |
| CN1C(=O)c2cccc3c(S(=O)(=O)NCCc4ccccc4)ccc1c23 | > 100 µM (inactive) | > 100 |
| Cc1onc(-c2ccccc2)c1-c1nnc(-c2ccccc2C(F)(F)F)o1 | > 100 µM (inactive) | > 100 |

| SMILES | AC50 [1] | AC50 [2] [µM] |
| --- | --- | --- |
| CC(=O)Nc1ccc(S(=O)(=O)Nc2cccc(-c3nc4cc(C)ccc4o3)c2)cc1 | > 100 µM (inactive) | > 100 |
| CC(C)(C)C1CCC(OCC(O)CN2CCN(c3ccccn3)CC2)CC1 (stereo unspecified) | > 100 µM (inactive) | 41 |
| CCc1cc(C(=O)N2CCCC(C(=O)c3cccc4ccccc34)C2)n(C)n1 (stereo unspecified) | > 100 µM (inactive) | > 100 |
| CC(C)Cn1c(=O)c2ccccc2c2ccccc2c1=O | > 100 µM (inactive) | > 100 |
| Cc1nnn(C23CC4CC(CC(CC(=O)Nc5ccc(C)c(C)c5)(C4)C2)C3)n1 | > 100 µM (inactive) | > 100 |
| COC(=O)c1ccc(CSc2nc(-c3ccccc3)cs2)o1 | > 100 µM (inactive) | 27.1 |
| O=C(NCc1ccc(S(=O)(=O)Nc2ccccc2Cl)s1)c1ccccc1 | > 100 µM (inactive) | > 100 |
| COc1ccc(C(=O)Nc2ccc3nc(C)sc3c2)cc1OC | > 100 µM (inactive) | > 100 |
| COc1ccc(OC)c(C(=O)COC(=O)c2ccc([N+](=O)[O-])o2)c1 | > 100 µM (inactive) | > 100 |
| Cc1ccccc1CSCC(=O)Nc1ccccc1F | > 100 µM (inactive) | > 100 |
| CCOc1ccccc1/C=C/c1cc(C(=O)O)c2ccccc2n1 | > 100 µM (inactive) | 37.6 |
| C=C1SC(Nc2c(C)cc(C)cc2C)=NC12CCCCC2 | > 100 µM (inactive) | 22.8 |
| CN(C)CCCN(C(=O)c1ccc(S(=O)(=O)N(C)Cc2ccccc2)cc1)c1nc2c(F)cccc2s1 | > 100 µM (inactive) | 39.3 |
| CC(C)(C)c1ccc2c(c1)C(c1ccc3c(c1)OCO3)CC(=O)O2 (stereo unspecified) | > 100 µM (inactive) | > 100 |
| O=C(Cc1coc2cc(O)ccc12)N1CCN(S(=O)(=O)c2ccc(Br)cc2)CC1 | > 100 µM (inactive) | 50.5 |
| COc1ccc(NC(=O)CCS(=O)(=O)c2ccccc2Cl)cc1S(=O)(=O)Nc1ccc(Cl)cc1 | > 100 µM (inactive) | > 100 |
| COc1ccc(C(=O)Cn2nnc(-c3ccccc3F)n2)cc1 | > 100 µM (inactive) | 48.8 |
| C(=C(c1ccccc1)c1ccccc1)c1ccccn1 | > 100 µM (inactive) | > 100 |
| Cc1ccc(N(CC(O)Cn2nc(C)cc2C)S(=O)(=O)c2ccc3ccccc3c2)cc1 (stereo unspecified) | > 100 µM (inactive) | 49.4 |

From PubChem BioAssay AID977628 (Broad Institute, 2014)
